# In ChEMBL document CHEMBL6127047, “Nitrogen-containing heterocyclic drug products approved by the FDA in 2023: Synthesis and biological activity” (Eur J Med Chem, 2024):
# Where a SMILES comes first, the peptide text is derived from it. [ ]: non-standard residue; d: D form. αMeP = C[C@@]1(C(=O)O)CCCN1
# Legend:
# Neuromedin-K receptor = molecular target: T1, Neuromedin-K receptor (Homo sapiens, UniProt P29371)
# T1 sequence (P29371 whole entry): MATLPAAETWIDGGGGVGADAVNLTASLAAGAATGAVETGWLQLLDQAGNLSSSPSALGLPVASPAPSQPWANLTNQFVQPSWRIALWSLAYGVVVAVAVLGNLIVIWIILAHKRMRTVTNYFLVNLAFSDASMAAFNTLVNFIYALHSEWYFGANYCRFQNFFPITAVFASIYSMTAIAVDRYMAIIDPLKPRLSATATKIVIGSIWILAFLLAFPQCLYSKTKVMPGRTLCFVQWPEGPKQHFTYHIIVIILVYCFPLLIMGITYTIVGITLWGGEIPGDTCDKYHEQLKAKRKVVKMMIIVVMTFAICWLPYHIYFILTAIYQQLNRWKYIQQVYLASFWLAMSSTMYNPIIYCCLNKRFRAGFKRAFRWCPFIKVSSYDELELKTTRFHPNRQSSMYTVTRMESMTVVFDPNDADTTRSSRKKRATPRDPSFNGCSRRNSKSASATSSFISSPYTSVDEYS
# Description: Binding affinity to human recombinant NK3R assessed as inhibition constant
# clinical [1] = details: human
# clinical [2] = details: human, in vivo, po
# clinical [3] = details: human; remark: listed apart in the source
# in vivo = details: mouse, iv, 3 mg/kg
# [4] = Cmax in human; type: ADME
# [5] = AUC in human; type: ADME
# clinical [6] = details: human, in vivo, po; remark: listed apart in the source
# Description: Oral bioavailability in human
# [7] = molecular target: Receptor-type tyrosine-protein kinase FLT3 (Homo sapiens, UniProt P36888, ITD); type: cell-based, MV4-11
# Chain of Receptor-type tyrosine-protein kinase FLT3 (P36888 whole entry, looked up, change not shown): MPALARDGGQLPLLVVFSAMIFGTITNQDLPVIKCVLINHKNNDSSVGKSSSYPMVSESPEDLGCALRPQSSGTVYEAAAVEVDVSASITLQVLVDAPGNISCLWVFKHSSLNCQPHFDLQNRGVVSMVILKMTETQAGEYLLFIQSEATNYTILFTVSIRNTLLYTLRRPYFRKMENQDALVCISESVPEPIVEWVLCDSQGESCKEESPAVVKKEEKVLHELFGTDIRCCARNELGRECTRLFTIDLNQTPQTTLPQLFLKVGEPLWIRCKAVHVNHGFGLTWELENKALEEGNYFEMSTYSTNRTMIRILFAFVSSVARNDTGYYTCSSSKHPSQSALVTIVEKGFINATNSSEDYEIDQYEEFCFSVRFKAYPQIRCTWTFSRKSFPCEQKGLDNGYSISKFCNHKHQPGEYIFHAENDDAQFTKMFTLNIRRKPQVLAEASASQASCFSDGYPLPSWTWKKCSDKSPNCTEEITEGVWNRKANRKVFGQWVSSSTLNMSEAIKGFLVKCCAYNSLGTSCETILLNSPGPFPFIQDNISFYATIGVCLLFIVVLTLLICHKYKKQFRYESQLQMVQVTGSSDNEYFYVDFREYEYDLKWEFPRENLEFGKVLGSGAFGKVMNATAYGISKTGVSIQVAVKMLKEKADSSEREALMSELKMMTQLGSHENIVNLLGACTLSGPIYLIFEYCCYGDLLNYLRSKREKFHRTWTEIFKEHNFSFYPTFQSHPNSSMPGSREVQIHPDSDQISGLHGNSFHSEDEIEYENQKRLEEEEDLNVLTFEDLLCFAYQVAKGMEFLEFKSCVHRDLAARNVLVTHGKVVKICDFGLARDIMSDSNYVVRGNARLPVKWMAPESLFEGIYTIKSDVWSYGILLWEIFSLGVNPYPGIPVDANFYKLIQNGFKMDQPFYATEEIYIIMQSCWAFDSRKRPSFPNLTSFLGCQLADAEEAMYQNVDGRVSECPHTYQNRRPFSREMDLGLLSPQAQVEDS
# [8] = Cmax in human at 200 mg; type: ADME
# [9] = Apparent volume of distribution at steady state in human at 200 mg; type: ADME; details: read-out: Vdss(app)
# [10] = Plasma protein binding in human; type: ADME, cell-free; details: read-out: PPB
# [11] = molecular target: T2, Tyrosine-protein kinase BTK (Homo sapiens, UniProt Q06187)
# T2 sequence (Q06187 whole entry): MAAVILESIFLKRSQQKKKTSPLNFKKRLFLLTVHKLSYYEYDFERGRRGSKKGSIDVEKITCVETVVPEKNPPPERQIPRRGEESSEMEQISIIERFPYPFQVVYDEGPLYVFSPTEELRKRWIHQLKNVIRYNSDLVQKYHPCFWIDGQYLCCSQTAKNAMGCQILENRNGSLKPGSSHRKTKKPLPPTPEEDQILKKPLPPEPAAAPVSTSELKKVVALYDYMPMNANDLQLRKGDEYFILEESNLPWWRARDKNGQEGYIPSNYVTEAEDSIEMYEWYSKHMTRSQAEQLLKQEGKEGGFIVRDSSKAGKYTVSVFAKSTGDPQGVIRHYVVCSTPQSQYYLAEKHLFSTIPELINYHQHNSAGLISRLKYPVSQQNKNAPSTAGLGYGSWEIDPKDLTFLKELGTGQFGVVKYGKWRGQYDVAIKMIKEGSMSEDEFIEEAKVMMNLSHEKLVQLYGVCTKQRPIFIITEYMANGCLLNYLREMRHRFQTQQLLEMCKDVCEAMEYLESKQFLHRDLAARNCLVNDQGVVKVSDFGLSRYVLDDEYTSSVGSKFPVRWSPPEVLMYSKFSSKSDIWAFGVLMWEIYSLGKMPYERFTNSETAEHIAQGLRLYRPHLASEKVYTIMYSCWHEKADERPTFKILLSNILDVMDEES
# Description: Inhibition of wild type BTK (unknown origin) stably transfected in HEK293 cells
# [12] = molecular target: T2, Tyrosine-protein kinase BTK; remark: listed apart in the source
# Description: Inhibition of wild type BTK (unknown origin)
# CYP3A4 = CYP3A4 (Homo sapiens, UniProt P08684); assay: Inhibition of CYP3A4 (unknown origin) at 10 uM relative to control; type: ADME
# Chain of CYP3A4 (P08684 whole entry): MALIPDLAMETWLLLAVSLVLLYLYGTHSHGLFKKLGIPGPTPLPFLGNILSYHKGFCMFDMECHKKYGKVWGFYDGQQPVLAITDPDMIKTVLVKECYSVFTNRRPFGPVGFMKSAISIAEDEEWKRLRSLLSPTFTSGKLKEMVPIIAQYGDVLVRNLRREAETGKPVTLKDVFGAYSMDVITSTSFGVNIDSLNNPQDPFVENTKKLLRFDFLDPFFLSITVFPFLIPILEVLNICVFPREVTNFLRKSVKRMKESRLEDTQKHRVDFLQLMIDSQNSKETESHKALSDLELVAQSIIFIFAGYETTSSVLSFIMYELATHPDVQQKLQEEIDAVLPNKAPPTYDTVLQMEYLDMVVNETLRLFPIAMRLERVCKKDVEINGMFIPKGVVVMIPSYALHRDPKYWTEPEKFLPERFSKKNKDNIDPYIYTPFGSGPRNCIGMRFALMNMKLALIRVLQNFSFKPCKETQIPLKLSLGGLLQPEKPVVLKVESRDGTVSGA
compound,measurement,setting,value
Cc1nsc(-c2nnc3n2CCN(C(=O)c2ccc(F)cc2)[C@@H]3C)n1 [FEZOLINETANT],Ki,Neuromedin-K receptor,21.8 nM
same,half-life,clinical [1],9.6 h
same,Cmax,clinical [2],1.5 ng/mL
same,Vd,clinical [3],189 L
C[C@@]1(C(=O)N[C@@H](CCC(=O)O)C(=O)O)CCCN1C(=O)CN [TROFINETIDE] (H-Gly-[αMeP]-Glu-OH),half-life,in vivo,1.5 h
CCC[C@H](N[C@H]1CCc2cc(F)cc(F)c2C1)C(=O)Nc1cn(C(C)(C)CNCC(C)(C)C)cn1 [NIROGACESTAT],Cmax,[4],508 ng/mL
same,AUC,[5],3370 ng·h/mL
same,bioavailability,clinical [6],19%
CC(C)(C)c1cc(NC(=O)Nc2ccc(-c3cn4c(n3)sc3cc(OCCCN5CCOCC5)ccc34)cc2)no1,IC50,[7],0.79 nM
N#CCNC(=O)c1ccc(-c2ccnc(Nc3ccc(N4CCOCC4)cc3)n2)cc1 [MOMELOTINIB],Cmax,[8],479 ng/mL
same,Vd,[9],984 L
same,fraction unbound,[10],0.09
CC(C)(C)c1cc(NC(=O)Nc2ccc(-c3cn4c(n3)sc3cc(OCCN5CCCCC5)ccc34)cc2)no1,IC50,[7],0.88 nM
COc1ccc(F)cc1C(=O)NCc1ccc(-c2nn([C@H](C)C(F)(F)F)c(N)c2C(N)=O)cc1,IC50,[11],21.2 nM
same,IC50,[12],5.69 nM
same,bioavailability,clinical [6],85.5%
same,half-life,clinical [1],19 h
C=CC(=O)N1C[C@H](Nc2ncnc3[nH]ccc23)CC[C@@H]1C [RITLECITINIB],bioavailability,clinical [6],64%
CC1(C)CCC(C)(C)c2cc(Cn3cccn3)c(/C=C/c3ccc(C(=O)O)cc3)cc21 [PALOVAROTENE],inhibition at 10 µM,CYP3A4,99%
